# Like-named read-outs stand apart in the source and are kept apart here.
# What was measured:
# Assay in all cases: Antibacterial activity test, MIC by two-fold dilution method
# [1] = system: K. pneumoniae PC1602; format: cell-based; settings: Klebsiella pneumoniae
# Description: (§1) The measurement was carried out in the following manner: 10^6 CFU/ml of a bacterium to be tested was inoculated on a Medium N for disc susceptibility test (manufactured by Nissui Pharmaceutical Co., Ltd.), and cultivated at 35° C. for 18 to 20 hours.
# [2] = system: C. freundii GN346/16; format: cell-based; settings: Citrobacter freundii
# Description: as §1
# [3] = system: P. aeruginosa E-2; format: cell-based; settings: Pseudomonas aeruginosa
# Description: as §1
# [4] = system: M. morganii 1510/S-1; format: cell-based; settings: Morganella morganii
# Description: as §1
# [5] = system: E. coli NIHJ JC-2; format: cell-based; settings: Escherichia coli
# Description: as §1
# [6] = system: S. marcescens No. 1; format: cell-based; settings: Serratia marcescens
# Description: as §1
# [7] = system: P. aeruginosa GN10362; format: cell-based; settings: Pseudomonas aeruginosa
# Description: as §1
# [8] = system: S. Aureus 209P JC-1; format: cell-based; settings: Staphylococcus aureus, read-out: Minimum Inhibition Concentration
# Description: as §1
# [9] = system: S. epidermidis ATCC14990; format: cell-based; settings: Staphylococcus epidermidis
# Description: as §1
# [10] = system: E. cloacae G-0008; format: cell-based; settings: Enterobacter cloacae
# Description: as §1
# [11] = system: P. vulgaris GN76; format: cell-based; settings: Proteus vulgaris
# Description: as §1
# [12] = system: S. Aureus 126; format: cell-based, Staphylococcus aureus (methicillin-resistant, MRSA); settings: Staphylococcus aureus, read-out: Minimum Inhibition Concentration
# Description: as §1
# [13] = system: S. Aureus 133; format: cell-based, Staphylococcus aureus (methicillin-resistant, MRSA); settings: Staphylococcus aureus, read-out: Minimum Inhibition Concentration
# Description: as §1
# [14] = K. pneumoniae PC1602, 10^6 CFU/ml, 35° C., 18 to 20 hours, read-out: Minimum Inhibition Concentration
# [15] = C. freundii GN346/16, 10^6 CFU/ml, 35° C., 18 to 20 hours, read-out: Minimum Inhibition Concentration
# [16] = E2, read-out: Minimum Inhibition Concentration
# [17] = 1510/S1, M. morganii 1510/S-1, 10^6 CFU/ml, 35° C., 18 to 20 hours, read-out: Minimum Inhibition Concentration
# [18] = NIHJJC2, E. coli NIHJ JC-2, 10^6 CFU/ml, 35° C., 18 to 20 hours, read-out: Minimum Inhibition Concentration
# [19] = S. marcescens No. 1, 10^6 CFU/ml, 35° C., 18 to 20 hours, read-out: Minimum Inhibition Concentration
# [20] = GN10362, read-out: Minimum Inhibition Concentration
# [21] = S. Aureus 209P JC-1, 10^6 CFU/ml, 35° C., 18 to 20 hours
# [22] = S. epidermidis ATCC14990, 10^6 CFU/ml, 35° C., 18 to 20 hours, read-out: Minimum Inhibition Concentration
# [23] = G0008, E. cloacae G-0008, 10^6 CFU/ml, 35° C., 18 to 20 hours, read-out: Minimum Inhibition Concentration
# [24] = P. vulgaris GN76, 10^6 CFU/ml, 35° C., 18 to 20 hours, read-out: Minimum Inhibition Concentration
# [25] = S. Aureus 126 (MRSA), 10^6 CFU/ml, 35° C., 18 to 20 hours
# [26] = S. Aureus 133 (MRSA), 10^6 CFU/ml, 35° C., 18 to 20 hours
# [27] = E2, P. aeruginosa E-2, 10^6 CFU/ml, 35° C., 18 to 20 hours, read-out: Minimum Inhibition Concentration
# [28] = ATCC14990, read-out: Minimum Inhibition Concentration
# [29] = GN76, read-out: Minimum Inhibition Concentration
# [30] = P. aeruginosa GN10362, 10^6 CFU/ml, 35° C., 18 to 20 hours, read-out: Minimum Inhibition Concentration
# [31] = GN346, read-out: Minimum Inhibition Concentration
# [32] = 1510/S1, read-out: Minimum Inhibition Concentration
# [33] = NO.1, read-out: Minimum Inhibition Concentration
SMILES,"MIC [1, 14] [µg/mL]","MIC [2, 15] [µg/mL]","MIC [4, 17] [µg/mL]","MIC [5, 18] [µg/mL]","MIC [6, 19] [µg/mL]","MIC [7, 20] [µg/mL]","MIC [8, 21] [µg/mL]","MIC [9, 22] [µg/mL]","MIC [10, 23] [µg/mL]","MIC [11, 24] [µg/mL]","MIC [12, 25] [µg/mL]","MIC [13, 26] [µg/mL]","MIC [3, 27] [µg/mL]",MIC ([8]; 209P) [µg/mL],"MIC [9, 28] [µg/mL]","MIC [11, 29] [µg/mL]","MIC [7, 30] [µg/mL]",MIC ([13]; MRSA) [µg/mL],also measured
"CO/N=C(\C(=O)N[C@@H]1C(=O)N2C(C(=O)[O-])=C(C[n+]3cc4scc(C(N)=O)n4c3)CS[C@H]12)c1nsc(N)n1 [Example 44, (6R,7R)-7-[(Z)-2-(5-Amino-1,2,4-thiadiazol-3-yl)-2-methoxyiminoacetamide]-3-(3-carbamoylimidazo[5,1-b]thiazolium-6-yl)methyl-3-cephem-4-carboxylate]",≤ 0.025,0.1,0.05,≤ 0.025,0.05,1.56,0.78,0.78,0.05,0.2,25,12.5,,,,,,,"MIC [3, 16]: 1.56 µg/mL"
"CO/N=C(\C(=O)N[C@@H]1C(=O)N2C(C(=O)[O-])=C(C[n+]3cc4sccn4c3)CS[C@H]12)c1nsc(N)n1 [Example 30, (6R,7R)-7-[(Z)-2-(5-Amino-1,2,4-thiadiazol-3-yl)-2-methoxyiminoacetamide]-3-(imidazo [5, l-b]thiazolium-6-yl)methyl-3-cephem-4-carboxylate]",0.05,0.1,0.1,0.05,0.05,1.56,,,0.05,,25,12.5,3.13,0.39,0.39,0.39,,,
"NC(=O)c1csc2c[n+](CC3=C(C(=O)[O-])N4C(=O)[C@@H](NC(=O)/C(=N\OCCF)c5nsc(N)n5)[C@H]4SC3)cn12 [Example 48, (6R,7R)-7-[(Z)-2-(5-Amino-2,4-thiadiazol-3-yl)-2-(2-fluoroethoxyimino)acetamide]-3-(3-carbamoylimidazo[5,1-b]thiazolium-6-yl)methyl-3-cephem-4-carboxylate]",≤ 0.025,0.1,≤ 0.025,≤ 0.025,≤ 0.025,,,,≤ 0.025,0.2,12.5,,0.78,0.39,0.39,,0.78,6.25,
"CO/N=C(\C(=O)N[C@@H]1C(=O)N2C(C(=O)[O-])=C(C[n+]3cccc4c3CCC4)CS[C@H]12)c1csc(N)n1 [CPR, Cefpirome, reference compound]",0.05,0.05,≤ 0.025,0.05,≤ 0.025,,0.2,,0.05,0.2,50,,3.13,,0.39,,3.13,6.25,
"C[C@H](O/N=C(\C(=O)N[C@@H]1C(=O)N2C(C(=O)[O-])=C(C[n+]3cc4sccn4c3)CS[C@H]12)c1csc(N)n1)C(=O)O [Example 2, (6R,7R)-7-[(Z)-2-(2-Aminothiazol-4-yl)-2-((S)-l-carboxyethoxy-imino)acetamide]-3-(imidazo[5,1-b]thiazolium-6-yl)methyl-3-cephem-4-carboxylate]",≤ 0.025,,≤ 0.025,0.05,≤ 0.025,,,,0.05,≤ 0.025,> 100,100,0.78,6.25,6.25,,0.78,,"MIC [2, 31]: 0.39 µg/mL"
"CC(C)(O/N=C(\C(=O)N[C@@H]1C(=O)N2C(C(=O)[O-])=C(C[n+]3ccccc3)CS[C@H]12)c1csc(N)n1)C(=O)O [CAZ, Ceftazidime, reference compound]",,,,,,1.56,,,,,> 100,100,,6.25,6.25,0.05,,,"MIC ([1]; PC1602, read-out: Minimum Inhibition Concentration): 0.1 µg/mL; MIC [2, 31]: 0.39 µg/mL; MIC [3, 16]: 1.56 µg/mL; MIC [4, 32]: 0.2 µg/mL; MIC ([5]; NIHJJC2, read-out: Minimum Inhibition Concentration): 0.39 µg/mL; MIC [6, 33]: 0.05 µg/mL; MIC ([10]; G0008, read-out: Minimum Inhibition Concentration): 0.2 µg/mL"
"Nc1nc(/C(=N/OCCF)C(=O)N[C@@H]2C(=O)N3C(C(=O)[O-])=C(C[n+]4cc5sccn5c4)CS[C@H]23)ns1 [Example 133, (6R,7R)-7-[(Z)-2-(5-Amino-1,2,4-thiadiazol-3-yl)-2-(2-fluoroethoxyimino)acetamide]3-cephem-4-carboxylate]",≤ 0.025,0.1,≤ 0.025,≤ 0.025,≤ 0.025,,,,≤ 0.025,0.2,12.5,,0.78,0.39,0.39,,0.78,6.25,
CO/N=C(\C(=O)N[C@@H]1C(=O)N2C(C(=O)[O-])=C(C[n+]3cc4sccn4c3CO)CS[C@H]12)c1nsc(N)n1 [Example 31],0.05,0.1,0.05,≤ 0.025,0.05,,0.78,0.78,0.05,,12.5,,3.13,,,0.39,3.13,6.25,
"Nc1nc(/C(=N/OC2CCCC2)C(=O)N[C@@H]2C(=O)N3C(C(=O)[O-])=C(C[n+]4cc5sccn5c4)CS[C@H]23)ns1 [Example 112, (6R,7R)-7-[(Z)-2-(5-Amino-1,2,4-thiadiazol-3-yl)-2-cyclopentyl-oxyiminoacetamide]-3-(imidazo[5,1-b]thiazolium-6-yl)methyl-3-cephem-4-carboxylate]",0.78,0.78,,0.78,,,,0.2,0.78,3.13,3.13,3.13,3.13,0.39,,,3.13,,"MIC [4, 32]: 0.39 µg/mL; MIC [6, 33]: 1.56 µg/mL"
"Nc1nc(/C(=N/OCF)C(=O)N[C@@H]2C(=O)N3C(C(=O)[O-])=C(C[n+]4cc5sccn5c4[C@H](CO)NC=O)CS[C@H]23)ns1 [Example 164, (6R,7R)-7-[(Z)-2-(5-amino-1,2,4-thiadiazol-3-yl)-2-fluoromethoxyiminoacetamido]-3-[5-((R)-1-formylamino-2-hydroxyethyl]imidazo[5,1-b]thiazolium-6-yl)methyl-3-cephem-4-carboxylate]",≤ 0.025,≤ 0.025,≤ 0.025,≤ 0.025,≤ 0.025,,0.78,0.78,0.05,0.2,,,0.78,,,,0.78,6.25,MIC ([12]; MRSA): 6.25 µg/mL

# Source: patent US5663162A, “Cephem derivatives” (priority 1993, dated 1997)
